Assay results taken from patent US9610359B2, “Methods and compositions related to annexin 1-binding compounds” (Burnham Institute for Medical Research, priority 2009, dated 2017).
Entries after “also recorded” stand apart in the source; their conditions may differ. Residues, ends and D or L forms follow the SMILES beside them. No end group written: not given here.

Columns and labels:
Anxa1-His6 protein [1] = biological target: T1, Anxa1-His6 protein (Homo sapiens, UniProt P04083); experiment: inhibition of binding of FITC-labeled polyacrylamide-LeA oligosaccharide to Anxa1-His6
T1 construct: Full-length cDNA encoding Anxa1 was obtained from Invitrogen (Carlsbad, Calif.) and subcloned into pET29a vector; His6 (C); made in house; host or cells: bacteria (pET29a vector, Novagen)
T1 sequence (P04083 1-346): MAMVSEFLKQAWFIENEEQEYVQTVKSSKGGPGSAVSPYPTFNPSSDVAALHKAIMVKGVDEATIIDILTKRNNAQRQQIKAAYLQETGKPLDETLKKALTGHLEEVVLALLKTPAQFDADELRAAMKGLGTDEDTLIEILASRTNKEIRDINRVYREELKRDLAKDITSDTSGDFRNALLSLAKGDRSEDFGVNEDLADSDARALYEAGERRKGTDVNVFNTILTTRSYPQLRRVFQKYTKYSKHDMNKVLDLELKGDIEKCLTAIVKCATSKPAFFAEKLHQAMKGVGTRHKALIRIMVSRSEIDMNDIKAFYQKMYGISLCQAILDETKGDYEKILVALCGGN
Text: (§1) FIGS. 1A-1H show the essential role of annexin 1 (Anxa1) in tumor growth and identification of a peptide sequence with tumor vasculature targeting activity in vivo. A and B. Growth of B16 tumors subcutaneously injected into Anxa1(+/−) and Anxa1(−/−) mutant mice. C. Histology of B16 tumors produced in Anxa1(+/−) and Anxa1(−/−) mice. Each scale bar represents 2.00 mm. D. Immunohistochemistry of B16 tumors for CD31 showing endothelial cells and vasculature. Each scale bar represents 200 μm. E. In vivo phage targeting in B16 tumor-bearing mice. Numbers of transformed colonies recovered from the tumor or lung were determined. […] F. In vivo tumor and organ targeting activity of IFLLWQR (SEQ ID NO:2) displaying phage. Phage was injected into B16 tumor bearing mice pre-injected with anti-Anxa1 antibody or with control rabbit IgG. G. In vitro plate assay for binding of IF7-A488 (upper line) and control RQ7-A488C (lower line) to recombinant […] protein produced by bacteria. H. Effect of IF7 (upper line) and control RQ7 (lower line) on binding of FITC-labeled polyacrylamide-LeA oligosaccharide to Anxa1-His6 protein.
(§2) Full-length cDNA encoding Anxa1 was obtained from Invitrogen (Carlsbad, Calif.) and subcloned into pET29a vector (Novagen) to produce an […] fusion protein. […] After washing the plate, fluorescence was measured by a Molecular Devices Analyst HT plate reader. […]

[2] = system: Mouse melanoma B16F1 tumors; format: in vivo; settings: B16 melanoma, 0.13 μmoles iv
Method: (a) Mouse melanoma B16F1 tumors were grown subcutaneously in C57BL6 mice. On day 10, each mouse was injected intravenously with either 100 μl of 5% glucose or that containing 0.13 μmoles of each IF7, GA, or IF7-GA. Injections were administered every other day, for a total of three injections, until day 14. […] B, Histochemistry of tumors from the mice intravenously injected with the compounds described in A. Apoptotic tumor cells along blood vessels in transplanted tumors are detected by TUNEL assay. B16 melanoma (a), LLC lung carcinoma (b), PC3 prostate tumor (c) and MDA-MB-231 breast tumor (d) from mice treated with each compound.
Injections were administered every other day, for a total of 7 injections, until day 26, as shown by arrows.

[3] = system: Mouse Lewis lung carcinoma (LLC) tumors; experiment: subcutaneous Lewis lung carcinoma tumor model; format: in vivo; settings: 0.13 μmoles iv
Method: (§3) FIGS. 6A and 6B show the effect of IF7-GA on melanoma, lung carcinoma, prostate cancer, and breast cancer mouse models. A, Effect of IF7-GA on tumor size. […] Mice were euthanised on day 15 to measure tumor weight. […] Mice were euthanised on day 13 and tumors weighed. (c) Human prostate cancer PC3 tumors were grown orthotopically in the prostate of SCID mice. On day 7, each mouse was injected intravenously with the compounds as in A-a, and injections administered every 4 days, for a total of four injections, until day 22. Mice were euthanised on day 28 and tumors weighed. (d) Human breast cancer MDA-MB-231 tumors were grown orthotopically in fat pads of SCID mice. On day 7, each mouse was injected intravenously with the compounds as in A-a, and injections performed every 4 days, for a total of four injections, until day 22. […] B, Histochemistry of tumors from the mice intravenously injected with the compounds described in A. Apoptotic tumor cells along blood vessels in transplanted tumors are detected by TUNEL assay. […]
(§4) Mouse melanoma B16F1 cells (2×10^5 cells/100 μl serum-free DMEM) were injected subcutaneously into the dorsal flank of C57BL/6 female mice (8-10 weeks old). […] On day 15, mice were sacrificed and tumor weights determined. […] On day 13, mice were sacrificed and tumor weights determined. […] On day 28, mice were sacrificed and prostate tumor weights determined. […]

[4] = system: Human prostate cancer PC3 tumors; experiment: orthotopic PC3 prostate cancer model in SCID mice; format: in vivo; settings: 0.13 μmoles iv
Method: as §3, §4

[5] = system: Human breast cancer MDA-MB-231 tumors; experiment: orthotopic MDA-MB-231 breast cancer model in SCID mice; format: in vivo; settings: MDA-MB-231 breast tumor, 0.13 μmoles iv
Method: as §3, §4

Anxa1-His protein = biological target: T2, Anxa1-His protein (Homo sapiens, UniProt P04083); experiment: isothermal titration calorimetry (ITC) with Anxa1-His protein; format: binding; settings: 23° C., 20 mM Tris pH 7.9, 250 mM NaCl, 1 mM CaCl2, 10% dimethylsulfoxide; average n=4, two Anxa1-His preparations
T2 construct: Full-length cDNA encoding Anxa1 was obtained from Invitrogen (Carlsbad, Calif.) and subcloned into pET29a vector; His6 (C); made in house; host or cells: bacteria (pET29a vector, Novagen)
T2 sequence (P04083 1-346): T1 sequence (P04083 1-346)
Method: ITC was performed on a VP-ITC calorimeter from Microcal (Northampton, Mass.). In this analysis IF7K3C peptide or […] (SEQ ID NO:12), in which IF7 was modified by inserted with three lysine residues between IF7 and C to increase solubility in water. Eight μl aliquots of solution containing 1.0 or 1.5 mM were injected into the cell containing 100 or 150 μM Anxa1-His protein. In each experiment 37 injections were made. The experiments were performed at 23° C. in buffer containing 20 mM Tris pH 7.9, 250 mM NaCl, 1 mM CaCl2 and 10% dimethylsulfoxide. Experimental data were analyzed using Microcal Origin software provided by the ITC manufacturer (Microcal, Northampton, Mass.).

[6] = body weights, blood cell counts and blood chemistry of treated nude mice; format: in vivo, mouse; settings: daily injection for 10 days, versus no drug injection
Text: FIGS. 15A, 15B and 15C show body weights (A), blood cell counts (B), and blood chemistry (C) of the nude mice treated with IF7C(RR)-SN38 and RQ7C(RR)-SN38 daily injection for 10 days.

Anxa1-His6 protein [7] = biological target: T1, Anxa1-His6 protein; experiment: in vitro plate assay for binding to recombinant Anxa1-His6 protein; settings: 4 μg/ml, Tris-HCl pH7.4, 1 mM CaCl2, 0.05% Tween 20
Text: as §1, §2

[8] = system: Lewis lung carcinoma (LLC) tumors; experiment: in vivo imaging of tumor targeting in dorsal skinfold chamber; design: species or system mouse; settings: for vascular staining in tumor tissue sections: 20 min after injection
Method: (A) Lewis lung carcinoma (LLC) tumors were allowed to vascularize for 3 days in dorsal skinfold chamber window in nude mice. Mice were injected with 100 μl of 50 μM IF7-A488 (row a) or RQ7-A488 (row b) in 5% glucose in water. IF7-A488 was also injected to tumor-bearing mice pre-injected with rabbit IgG (row c) or with rabbit anti-Anxa1 antibody (row d). Fluorescence signals were monitored under a fluorescence microscope up to 40 min post-injection. From left: bright field before injection, and fluorescence at 0, 5, 20 min after injection. Far right, the boundary of tumor and stroma at 20 min (Scale bar=500 μm). (B) Quantitative analysis of fluorescence during the course of the analysis shown in A. The line with the highest signal at 10 minutes represents IF&-A488. The line with the second highest signal at 10 minutes represents the control IgG. The line with the third highest signal at 10 minutes represents Anxa-1 antibody. The line with the lowest signal at 10 minutes represents RQ7-A488. Intensity of fluorescence was determined by Image J program. Error bars represent SD (n=3). Asterisks show statistical significance or p<0.0001, t test. (C) Fluorescence micrographs of tumor sections 20 min after injection with IF7-A488 and RQ7-A488. From left: IF7-A488, DAPI, merged, and bright field. […] Experiments were repeated 3 times, and representative results are shown. Arrows indicate fluorescence. (D) Fluorescence remained in circulation in mice with or without subcutaneous B16 tumors. IF7-A488 was injected intravenously through the tail vein, and fluorescence remaining in circulation was measured. Upper line represents “without tumor”, middle line represents “with 3 days tumor”, and bottom line represents “with 6 days tumor.” Error bars represent SD (n=3).
A Lewis lung carcinoma (LLC) tumor was produced in a donor nude mouse by subcutaneous injection, and small piece of tumor (less than 1 mm^3) was transplanted to a dorsal skinfold chamber in a recipient nude mouse (8-10 weeks female Balb/c nude) as described (Lehr et al., Am J Pathol 1993; 143:1055-62; Oh et al., Nat Biotechnol 2007; 25:327-37). Three days later, the mouse was anesthetized by peritoneal injection of 1.25% 2,2,2-Tribromoethanol ([…]). IF7-A488 or RQ7-A488 (100 μl; […] in 5% glucose solution) was injected through the tail vein. Intravital Alexa 488 signals in the tumor were detected and recorded by a Zeiss Axioplan fluorescence microscope and a digital camera system (DP70 and DP controller, Olympus). For inhibition assays, rabbit anti-Anxa1 antibody (H-65, Santa Cruz) or rabbit IgG (20 μg IgG) was injected 15 minutes prior to IF7-A488 injection. Signal intensity in the tumor from 0 min to 40 min was measured by Image J (NIH, Maryland). After 10 min, irradiation of specimens by a UV lamp was limited only to times when photos were taken to avoid fluorescence bleaching. The tumor was isolated from the dorsal skin folder chamber, fixed with 4% paraformaldehyde at room temperature for 15 min, immersed in O.C.T compound, and cryosections were made. Frozen sections were overlaid with Vectashield containing DAPI (Vector laboratories) and examined under a Zeiss Axioplan fluorescence microscope.

[9] = fluorescence remaining in circulation after intravenous injection; format: in vivo, mouse
Method: (A) Lewis lung carcinoma (LLC) tumors were allowed to vascularize for 3 days in dorsal skinfold chamber window in nude mice. Mice were injected with 100 μl of 50 μM IF7-A488 (row a) or RQ7-A488 (row b) in 5% glucose in water. IF7-A488 was also injected to tumor-bearing mice pre-injected with rabbit IgG (row c) or with rabbit anti-Anxa1 antibody (row d). Fluorescence signals were monitored under a fluorescence microscope up to 40 min post-injection. From left: bright field before injection, and fluorescence at 0, 5, 20 min after injection. Far right, the boundary of tumor and stroma at 20 min (Scale bar=500 μm). (B) Quantitative analysis of fluorescence during the course of the analysis shown in A. The line with the highest signal at 10 minutes represents IF&-A488. The line with the second highest signal at 10 minutes represents the control IgG. The line with the third highest signal at 10 minutes represents Anxa-1 antibody. The line with the lowest signal at 10 minutes represents RQ7-A488. Intensity of fluorescence was determined by Image J program. […] (C) Fluorescence micrographs of tumor sections 20 min after injection with IF7-A488 and RQ7-A488. […] Arrows indicate fluorescence. (D) Fluorescence remained in circulation in mice with or without subcutaneous B16 tumors. IF7-A488 was injected intravenously through the tail vein, and fluorescence remaining in circulation was measured. […]

[10] = 100 μl of 50 μM, tail vein, nude mice

In the case of “RQWLLFI (control peptide) [RQ7, reference compound]”, the “inhibition of fucosylated carbohydrate (LeA) binding to Anxa1” value (Anxa1-His6 protein [1]) is reported as “not by RQ7”.
In the case of CO[C@H]1/C=C\C=C(/C)C(=O)NC2=CC(=O)C(NCCCNC(=O)CCCN3C(=O)C=CC3=O)=C(C[C@@H](C)C[C@H](OC)[C@H](O)[C@@H](C)/C=C(\C)[C@@H]1OC(N)=O)C2=O [GA, 17-GMB-APA-GA, reference compound], the “apoptosis of perivascular tumor cells (TUNEL, histochemistry)” value [2] is reported as “rarely show apoptosis”, the “apoptosis of perivascular tumor cells (TUNEL)” value (shortened to “apoptosis … (TUNEL)”) [3] is reported as “rarely show apoptosis” and the “apoptosis … (TUNEL)” value [4] is reported as “rarely show apoptosis”. The “apoptosis … (TUNEL)” value [5] was “rarely show apoptosis”.
Work on CC[C@H](C)[C@H](N)C(=O)N[C@@H](Cc1ccccc1)C(=O)N[C@@H](CC(C)C)C(=O)N[C@@H](CC(C)C)C(=O)N[C@@H](Cc1c[nH]c2ccccc12)C(=O)N[C@@H](CCC(N)=O)C(=O)N[C@@H](CCCNC(=N)N)C(=O)N[C@@H](CCCCN)C(=O)N[C@@H](CCCCN)C(=O)N[C@@H](CCCCN)C(=O)N[C@@H](CS)C(=O)O [IF7K3C] (H-IFLLWQRKKKC-OH; N-terminus and C-terminus assumed) yielded a Kd (Anxa1-His protein) of 11 ± 6 µM.
In the case of “RQ7C(RR)-SN38 (RQWLLFICRR; also: SN-38 conjugate, site not given here)”, the blood cell counts [6] is reported as “None of the parameters showed significant differences to the control”, the blood chemistry [6] is reported as “None of the parameters showed significant differences to the control” and the body weights [6] is reported as “None of the parameters showed significant differences to the control”.
In the case of IF7-A488 (IFLLWQRC), the “binding to recombinant Anxa1-His6 protein in plate assay” value (Anxa1-His6 protein [7]) is reported as “binds to recombinant Anxa1-His6 protein”, the “time until fluorescence signals appeared in the tumor” value [8, 10] is reported as “within one minute” and the “time until tumor fluorescence reached a plateau” value [8, 10] is reported as 9 min. The “vascular staining in tumor tissue sections” value [8] was “vascular staining by IF7-A488; also recorded: detected on endothelial cells of tumor vasculature”, the “tumor targeting after prior injection of irrelevant rabbit IgG” value ([8]; IgG 15 minutes prior) was “did not inhibit IF7-A488 tumor targeting” and the “tumor fluorescence signals after prior injection of anti-Anxa1 antibody” value ([8]; antibody 15 minutes prior) was “significantly reduced”. The “time tumor fluorescence remained high” value ([8]; or until the experiment was terminated) was 40 min, the “fluorescence remaining in circulation, mice without tumors” value ([9]; control mice without tumors) was “remained in circulation after an initial surge” and the “fluorescence remaining in circulation, B16-tumor-bearing mice” value ([9]; subcutaneous B16 tumors) was “complete disappearance from the circulation”.
For “RQ7-A488 (RQWLLFI; also: Alexa 488 conjugate, site not given here) [reference compound]”, the “binding to recombinant Anxa1-His6 protein in plate assay” value (Anxa1-His6 protein [7]) was “did not bind to Anxa1”, the tumor fluorescence signals [8, 10] was “either not detectable or remained at background levels” and the “vascular staining in tumor tissue sections” value [8] was “not RQ7-A488; also recorded: no RQ7-A488 signal was detected”.
